How the values were obtained:
Format in all cases: cell-based, human
[1] = test system: memory CD45RO+CD25−CCR6+CD4+ T cells; experiment: IL-17 production in sorted adult blood memory CD4+ T cells cultured with or without IL-1β in serum-containing media (intracellular staining); details: day 6
Experimental: (§1) Blood samples were obtained from the New York Blood Center. Mononuclear cells were prepared from buffy coats of healthy adult donors or from cord blood on FicollPAQUE gradients. CD4^+ T cells were isolated on an autoMACS Pro using Miltenyi bead depletion of CD14^+ and CD25^+ cells followed by positive selection of CD4^+ cells. Cord blood CD4^+ T cells were >97% pure and 100% CD45RA^+ and were used as such for initial transduction experiments. Adult CD4^+ T cell subsets and naive cord blood CD4^+ T cells were further purified respectively as CD3^+CD4^+CD25^−CD45RO^−/+ and CD3^+CD4^+CD25^−HLA-DR^−CD45RA^+ by cell sorting on a FACSAria.
(§2) Cells were cultivated in either RPMI1640 (Invitrogen) supplemented with 10% fetal bovine serum (Hyclone), penicillin-streptomycin, 2 mM glutamine, 10 mM HEPES, 1 mM pyruvate and 0.1 mM non-essential amino acids or serum-free XVIVO-20 (Lonza) supplemented with penicillin-streptomycin in a 37° C. 5% CO2 incubator. […]
(§3) For intracellular cytokine staining, cells were incubated for 5 hours with 50 ng/ml PMA (Sigma), 500 ng/ml Ionomycin (Sigma), and GolgiStop (BD). […] Flow cytometric measures were performed on a LSR II (BD Biosciences) instrument and analyzed using FlowJo software (Tree Star Inc.). […]

[2] = test system: naive CD45RO−CD25−CCR7+ T cells; experiment: IL-17 production in sorted adult blood naive CD4+ T cells cultured with or without IL-1β in serum-containing media (intracellular staining); details: day 6
Experimental: as §1, §2, §3

[3] = test system: Cord blood CD4+ T cells transduced with RORγT; experiment: IL-17 and FOXP3 expression following RORγT transduction of cord blood CD4+ T cells (intracellular staining); details: for effect on the suppression of IL-17 production induced by TGF-β: RORγT-transduced cells, with TGF-β; for increase of the proportion of IL-17-producing cells after forced expression of RORγT: cytokine 10 ng/ml
[4] = test system: Naive cord blood CD4+ T cells; experiment: Th17 cell polarization of naive cord blood CD4+ T cells in serum-free media (intracellular and surface staining: IL-17, IL-22, FOXP3, CCR6); details: for suppression of TGF-β-induced FOXP3 expression: added to TGF-β
Experimental: as §1, with “Cord blood CD4^+ T cells were >97% pure and 100% CD45RA^+ and were used as such for initial transduction experiments.” left out
(§4) Cells were cultivated in either RPMI1640 (Invitrogen) supplemented with 10% fetal bovine serum (Hyclone), penicillin-streptomycin, 2 mM glutamine, 10 mM HEPES, 1 mM pyruvate and 0.1 mM non-essential amino acids or serum-free XVIVO-20 (Lonza) supplemented with penicillin-streptomycin in a 37° C. 5% CO2 incubator. CD4^+ T cells were stimulated by addition of anti-mouse IgG magnetic beads (Pierce) previously coated with purified anti-CD3 and anti-CD28 at final concentrations of 1 bead/cell and 1 μg/ml of each antibody. […] Lentiviral supernatants were added at an MOI ranging from 1 to 10. […] For the shRNA experiment, puromycin was added at day 2 at 2 μg/ml. For polarization experiments, cells were seeded at a concentration of 5×10^5 to 10^6 cells/ml in U-bottom 96 well plates with anti-CD3/CD28 coated beads. […] For long-term experiments, cells were split as needed. […] Cells were harvested at day 6 for intracellular staining and real-time PCR analysis except where specified otherwise.
For intracellular cytokine staining, cells were incubated for 5 hours with 50 ng/ml PMA (Sigma), 500 ng/ml Ionomycin (Sigma), and GolgiStop (BD). Surface staining was performed by incubation with the corresponding fluorescently labeled antibodies for 15 min on ice. Intracellular staining was performed using the Cytofix/Cytoperm buffer set (BD). Briefly, cells were fixed and permeabilized for 30 min at room temperature and stained in permeabilization buffer for 30 min at room temperature. Flow cytometric measures were performed on a LSR II (BD Biosciences) instrument and analyzed using FlowJo software (Tree Star Inc.). Antibodies are detailed in Table 1. FOXP3 was stained using FOXP3 staining buffers (eBioscience). The present inventors used the FJK-16s antibody, which was originally reported as an anti-mouse/rat FoxP3 antibody.

[5] = test system: Naive cord blood CD4+ T cells; experiment: mRNA levels of Th17 markers (IL17, IL26, IL17F, RORC, RORA, IL23R) during Th17 cell differentiation of naive cord blood CD4+ T cells (real-time PCR); details: day 6; for IL-17F expression / IL-23R expression: cytokine alone (with IL-2)
Experimental: as §1, §4
(§5) RNA was extracted by TRIZOL (Invitrogen) and cDNA was synthesized with Superscript II (Invitrogen) and random primers. cDNA was analyzed by real-time quantitative PCR in triplicates by using iQ CYBR Green Supermix (Bio-Rad) or QuantiTect Multiplex PCR mix (Qiagen) in the iCycler Sequence Detection System (Bio-Rad). The starting quantity (SQ) of the initial cDNA sample was calculated from primer-specific standard curves by using the iCycler Data Analysis Software. The expression level of each gene was normalized to beta-actin expression level using the standard curve method. Fold changes were calculated by normalizing to the first sample of each set. Error bars were calculated based on triplicate measurements of each gene. The primer sets for real-time PCR are detailed in Table 2.

RORC = RORC expression in CD45RO− adult naive CD4+ T cells cultivated with cytokines (real-time PCR); details: cytokine alone
Experimental: as §1, with “FACSAria. […]” for “FACSAria.”
as §5, with “The expression level of each gene was normalized to beta-actin expression level using the standard curve method.” left out, “The primer sets for real-time PCR are detailed in Table 2.” left out

[6] = increasing concentration of TGF-β, day 6

IL-1β: cytokine, 10 ng/ml IL-1β (eBioscience)
increase of IL-17 production [1]: two-fold | effect on IL-17 production [2]: no effect | effect on the suppression of IL-17 production induced by TGF-β [3]: partially relieved | increase of the proportion of IL-17-producing cells after forced expression of RORγT ([3]; day 6): about two-fold | suppression of TGF-β-induced FOXP3 expression ([4]; day 6): not | IL-17F expression [5]: Some expression | IL-23R expression [5]: not

IL-6: cytokine, 10 ng/ml IL-6 (eBioscience)
effect on the suppression of IL-17 production induced by TGF-β [3]: partially relieved | increase of the proportion of IL-17-producing cells after forced expression of RORγT ([3]; day 6): about two-fold | suppression of TGF-β-induced FOXP3 expression ([4]; day 6): able to inhibit | induction of IL-17 ([4]; both IL-1β and TGF-β included, day 6): active, albeit not as strongly as IL-23 | induction of IL-17 ([4]; combined with TGF-β alone): failed to induce

TGF-β: cytokine, TGF-β1 (PeproTech)
effect on IL-17 production after forced expression of RORγT ([3]; various concentrations of TGF-β, day 6): potently suppressed | RORγT (RORC) expression (RORC): induced dose-dependent RORγT expression | CCR6 cell surface expression ([4]; TGF-β alone, day 6): induced | FOXP3 expression [4, 6]: induced | IL-22 expression [4, 6]: progressively inhibited | RORA expression [5]: slightly induced | levels of IL-26 mRNA [5]: increased with the dose | RORC expression ([5]; increasing concentrations of TGF-β): gradually induced

soluble IL-21R: neutralizing soluble IL-21R (R&D) [reference compound]
effect on IL-17 expression ([4]; IL-23+IL-1β+IL-2+TGF-β, at levels that inhibited STAT3 phosphorylation, day 6): no effect

B1: IL-23: cytokine, 10 ng/ml IL-23 (eBioscience) (protein, UniProt Q9NPF7 20-189; P29460 23-328, looked up)
Interleukin-23 subunit alpha: RAVPGGSSPAWTQCQQLSQKLCTLAWSAHPLVGHMDLREEGDEETTNDVPHIQCGDGCDPQGLRDNSQFCLQRIHQGLIFYEKLLGSDIFTGEPSLLPDSPVGQLHASLLGLSQLLQPEGHHWETQQIPSLSPSQPWQRLLLRFKILRSLQAFVAVAARVFAHGAATLSP
Interleukin-12 subunit beta: IWELKKDVYVVELDWYPDAPGEMVVLTCDTPEEDGITWTLDQSSEVLGSGKTLTIQVKEFGDAGQYTCHKGGEVLSHSLLLLHKKEDGIWSTDILKDQKEPKNKTFLRCEAKNYSGRFTCWWLTTISTDLTFSVKSSRGSSDPQGVTCGAATLSAERVRGDNKEYEYSVECQEDSACPAAEESLPIEVMVDAVHKLKYENYTSSFFIRDIIKPDPPKNLQLKPLKNSRQVEVSWEYPDTWSTPHSYFSLTFCVQVQGKSKREKKDRVFTDKTSATVICRKNASISVRAQDRYYSSSWSEWASVPCS
suppression of TGF-β-induced FOXP3 expression ([4]; day 6): able to suppress | IL-17F expression [5]: no effect | IL-23R expression [5]: induced to some extent

Source: patent US9498495B2, “Methods for in vitro differentiation of TH-17+ cells” (New York University, priority 2008, dated 2016)
